According to US20250057985A1, “REEXPRESSION OF HNF4A TO ALLEVIATE CANCER-ASSOCIATED CACHEXIA” (YEDA RESEARCH AND DEVELOPMENT CO. LTD., priority 2022, published 2025):
Blank lines part the entries; values can stand above or below the molecule they belong to.

Columns and labels:
CD8+ splenocytes = conditions: ex-vivo, 1 mM ammonia, WT mice
Procedure: Activation of T cells from mice spleens: 10 weeks old WT female Balb/c mice were sacrificed and spleen harvested into cold-PBS on ice. Spleens were homogenized by syringe plunger through 70 uM strainer and washed with PBS. Following centrifugation at 1200 rpm for 5 min pellets were treated with RBC lysis buffer according to the manufacturer's instruction. Cells were resuspended in 2×10^6 cells/ml in splenocytes medium (complete RPMI medium supplemented with 50 μM β-mercaptoethanol, […] and Non-essential amino acids) supplemented with 6,000 IU/mL IL-2 (Chiron, rhIL2) and seeded in 24 well plates pre-coated with CD3 (BLG #100302). Following 72 h, cells were collected, centrifuged at 1200 rpm for 5 min, washed with splenocytes medium×2, and analyzed using CytoFLEX (Beckman Coulter) FACS analyzer.

STAT3 = target: T1, STAT3 (Mus musculus, UniProt P42227); experiment: STAT3 inhibitor in IL-6-treated primary hepatocytes, OTC RT-PCR; type: cell-based; conditions: 10 μM inhibitor 30 min then IL-6 48 h
T1 construct: endogenous in cells; host or cells: primary mouse hepatocytes isolated by liver perfusion
Procedure: Primary hepatocytes culture: Following perfusion, 1×10^6 isolated hepatocytes were seeded in 3 ml Williams E+Glutamx-TM-1 in 6 well plate. Four hours after, the medium was aspirated, and the cells were washed with PBS and incubated with 2 ml Williams E+Glutamx-TM-1 overnight. Cells were treated with 10 μM of HJC0152 STAT3 inhibitor (Selleckchem #58561), for 30 minutes cells and then treated with 10 ng/ml recombinant mouse IL-6 (R&D #406-ML-005) for 48 h.
RNA processing and quantitative PCR: RNA was extracted from liver tissue by using QIAzol Lysis Reagent (according to QIAzol® Handbook) or by Direct-zol™ MiniPrep Plus Kit (Zymo Research ZR-R2070). For hepatocytes RNA sequencing, RNA was extracted from dissociated hepatocytes. Following liver perfusion as previously described, hepatocytes were resuspended in QIAzol and frozen in −80° C. RNA was extracted by using QIAzol Lysis Reagent. RNA from cultured primary hepatocytes was extracted by using RNeasy Mini Kit (QIAGENe #74104). To evaluate mtDNA copy number, total DNA was isolated using DNA purification kit (DNeasy Blood & Tissue Kits Qiagen #69504). cDNA was synthesized from […] RNA by using qScript cDNA Synthesis Kit (Quanta #95749). Detection on cDNAs was performed using Syber Green Fast mix Perfect CT (Quantabio #95073) with the required primers (qPCR primer list—Table 1)

primary hepatocytes = experiment: IL-6 supplementation of primary hepatocytes, RT-PCR; type: cell-based, mouse
Procedure: Liver Perfusions and hepatocytes dissociation: Livers of anaesthetized mice were perfused, with specific adjustments. The vena cava was inserted with 27 G syringe, fixed on the perfusion line. 10 ml of pre-warmed to 42° C. PPML buffer followed by 25 ml of pre-warmed to 42′C PM buffer with Liberase (Roche, cat #05401127001) were perfused through the vena cava. Immediately at the beginning of the perfusion, the portal vein was cut. Following perfusion of 25 ml of PM buffer and Liberase solution, livers were harvested into a Petri dish with 10 ml of pre-warmed PM buffer and chopped by forceps. Dissociated liver cells were collected and filtered through a slanted 100 um cell strainer. Cells were spin down at 30 g for 3 min at 4° C. to get hepatocytes enriched pellet. Pellet was resuspended in […] cold PM buffer. To enrich live hepatocytes, 21.6 ml cold Percoll (G.E. Healthcare #17-0891-01) mixed with +2.4 ml DPBSX10+CaCl2)+MgCl2 was added to the cells. Cells were centrifuged at 600 rpm for 10 minutes at 4° C. Supernatant containing the dead cells was aspirated, and cells were resuspended in 25 ml of cold Williams E+Glutamx-TM-1 (Gibco, cat #32551, 1% penstrep, 1% FBS, 1% L-Glutamine). […]
RNA processing and quantitative PCR: RNA was extracted from liver tissue by using QIAzol Lysis Reagent (according to QIAzol® Handbook) or by Direct-zol™ MiniPrep Plus Kit (Zymo Research ZR-R2070). […]

T1 sequence (P42227 whole entry, the tested form may be a part): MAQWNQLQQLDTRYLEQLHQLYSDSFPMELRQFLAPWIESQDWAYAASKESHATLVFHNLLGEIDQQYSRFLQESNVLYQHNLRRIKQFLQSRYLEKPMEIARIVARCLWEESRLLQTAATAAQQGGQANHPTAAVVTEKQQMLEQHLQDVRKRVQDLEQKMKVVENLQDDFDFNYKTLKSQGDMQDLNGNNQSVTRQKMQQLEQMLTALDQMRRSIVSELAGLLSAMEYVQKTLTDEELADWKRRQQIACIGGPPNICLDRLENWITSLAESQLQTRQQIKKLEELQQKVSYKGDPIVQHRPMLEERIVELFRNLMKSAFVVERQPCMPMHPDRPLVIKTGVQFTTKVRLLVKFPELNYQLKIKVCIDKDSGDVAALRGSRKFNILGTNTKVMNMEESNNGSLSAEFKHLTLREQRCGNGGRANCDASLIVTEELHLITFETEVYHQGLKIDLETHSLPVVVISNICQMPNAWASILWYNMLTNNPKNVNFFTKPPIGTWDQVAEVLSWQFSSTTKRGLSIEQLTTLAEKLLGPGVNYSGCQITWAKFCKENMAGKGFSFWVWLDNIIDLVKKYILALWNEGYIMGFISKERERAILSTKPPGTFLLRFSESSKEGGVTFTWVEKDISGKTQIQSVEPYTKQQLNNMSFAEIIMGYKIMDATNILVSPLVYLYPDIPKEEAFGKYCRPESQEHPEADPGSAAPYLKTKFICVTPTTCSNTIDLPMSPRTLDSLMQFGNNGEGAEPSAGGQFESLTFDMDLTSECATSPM

Molecule: N [ammonia]
activation of T-cells splenocytes (CD8+ splenocytes): reduced
survival of T-cells splenocytes (CD8+ splenocytes): reduced

OTC expression levels in the presence of IL-6 (STAT3): rescued
OTC expression levels in the presence of IL-6 (STAT3; listed as HJCO152): restores
Molecule: NCCOc1ccc(Cl)cc1C(=O)Nc1ccc([N+](=O)[O-])cc1Cl [HJC0152]

B1: IL-6: recombinant mouse IL-6 (R&D #406-ML-005) (protein, UniProt P08505 25-211, looked up)
Interleukin-6: FPTSQVRRGDFTEDTTPNRPVYTTSQVGGLITHVLWEIVEMRKELCNGNSDCMNNDDALAENNLKLPEIQRNDGCYQTGYNQEICLLKISSGLLEYHSYLEYMKNNLKDNKKDKARVLQRDTETLIHIFNQEVKDLHKIVLPTPISNALLTDKLESQKEWLRTKTIQFILKSLEEFLKVTLRSTRQT
RNA expression levels of OTC (primary hepatocytes; 10 ng/ml recombinant mouse IL-6, 48 h): decreased
CCL2 RNA levels (primary hepatocytes; IL-6 supplementation): increased
